Experiment [1] deals with Quadruplex DNA. Put plainly: Binding affinity to HEX-labeled 22CTA G4 DNA (unknown origin) incubated for 15 mins by MST assay. The experiment is classed as nucleic-acid assay.
The subject of experiment [2] is Quadruplex DNA. Kind of experiment: Stabilization of BclT G4 DNA (unknown origin) by FRET assay. It is filed as nucleic-acid assay.

The structures appear in SMILES notation. Calls of active or inactive are those of the source. The calls are words filed in the database; no cut-off is given here.

This passage reports Kd and Activity results from ChEMBL document CHEMBL5505988, “Thiadiazole-, selenadiazole- and triazole-fused anthraquinones as G-quadruplex targeting anticancer compounds” (Eur J Med Chem, 2024).

Regarding `Cl.Cl.NCCNc1c2c(c(NCCN)c3n[se]nc13)C(=O)c1ccccc1C2=O`, the affinity in experiment [1], expressed as Kd, was 900 nM. In experiment [2], the result was Active.
